# Laboratory results from patent US20100184812A1, “MUTUAL PRODRUGS AND METHODS TO TREAT CANCER” (UNIVERSITY OF MARYLAND, BALTIMORE, priority 2007, published 2010).
# “Also recorded” adds a separate entry of the source. Like-named read-outs stand apart in the source and are kept apart here.
# Key:
# MCF-7 = experiment: MTT cell growth inhibition, MCF-7 cells; type: cell-based
# Procedure: (§1) Other cell lines used in this study include, MDA-MB-231 (estrogen receptor negative, ER−ve), MCF-7 (ER+ve) were also purchased from ATCC and were cultured as previously described.^44, 45 LTLC and LTLT-Ca were kindly provided by Dr. Angela Brodie, University of Maryland, Baltimore, and details of their phenotypes and culturing conditions are as previously reported.^46, 47 MCF-7TAM and MCF-7HoxB-7 were provided by Dr. Sara Sukumar of Johns Hopkins University, Baltimore, and details of their phenotypes and culturing conditions are as previously reported.^48 Except for MCF-7 breast cancer cell all other breast cancer cells used in this study are insensitive to endocrine therapeutic agents and to most anti-cancer agents.
# (§2) PC-3 cells were seeded in 24 well plates (Corning Costar) at a density of 2×10^4 cells per well per 1 mL of medium. Cells were allowed to adhere to the plate for 24 hours and then treated with different concentrations of ATRA, HDIs or mutual prodrugs dissolved in 10% DMSO, 90% ethanol. Cells were treated for five days with renewal of prodrug and media on day 3. On the fifth day, medium was renewed and 100 μL of MTT (3-(4,5-dimethylthiazol-2-yl)-2,5-diphenyl-2H-tetrazolium bromide from Sigma) solution (0.5 mg MTT/mL of media) was added to the medium such that the ratio of MTT:medium was 1:10. The cells were incubated with MTT for 2 hours. The medium was then aspirated and 500 μL of DMSO was added to solubilize the violet MTT-formazan product. The absorbance at 560 nm was measured by spectrophotometry (Victor 1420 multilabel counted, Wallac). For each concentration of agent or mutual prodrugs there were triplicate wells in each independent experiment. GI50 values were calculated by nonlinear regression analysis using GraphPad Prism software.
# (§3) Given the potency of most of the mutual prodrugs of the present invention, in MDA-MB-231 and PC-3 cell lines, their effects on the growth of some known drug-resistant breast cancer cell lines, including MCF-7TAMR, MCF-7Hox-B7, LTLC and LTLT-Ca was tested compared to parental MCF-7 cells.
# [1] = system: PC-3 prostate cancer cells; experiment: MTT cell growth inhibition assay, PC-3 cells; type: cell-based, human
# Procedure: PC-3 (androgen receptor negative, AR−ve) cells were obtained from American Type Culture Collection (ATCC, Rockville, Md., USA). Cells were maintained in RPMI 1640 medium (Gibco, Invitrogen, Carlsbad, Calif., USA) supplemented with 10% fetal bovine serum (Atlanta Biologicals, Lawrenceville, Ga., USA) and 1% penicillin/streptomycin. Cells were grown as a monolayer in T75 tissue culture flasks in a humidified incubator (5% CO2, 95% air) at 37° C.
# as §2
# (§4) The MTT (3-[4,5-dimethylthiazol-2-yl]-2,5-diphenyltetrazolium bromide) assay was used to measure the cell viability. PC-3 cells or MDA-MB-231 cells (1.0×10^3 cells/ml) were seeded into 96 well plates. Cells were treated with the compounds on day 2 at different concentrations. On the 5th day, the medium was removed and […] of a 0.5 mg/ml MTT solution was added to each well. The plates were incubated at 37° C. for 2 hours and 200 μL of DMSO was added. The yellow tetrazolium salt (MTT) is reduced to a purple formazan product by the mitochondrial dehydrogenase from living cells. The product is then detected by spectrophotometry at 560 nm.
# To assess the effect of mutual prodrugs on cell growth, PC-3 and MDA-MB-231 cells were treated with mutual prodrugs for […], respectively. […] In this cell line, the order of potency was VNLG/66>VNLG/114>VNLG/122>VNLG/124>VNLG/60. The efficacies of mutual prodrugs were compared to the efficacies of ATRA or HDIs alone in PC-3 prostate cancer cells. […] The reason(s) for these differential potencies of the different mutual prodrugs in PC-3 cells are unknown at this time, but may be idiosyncratic, possibly due to extents and efficiencies of cell membrane penetration and/or intracellular cleavage of mutual prodrugs.
# MCF-7HOX-B7 = experiment: MTT cell growth inhibition, MCF-7HOX-B7 cells; type: cell-based
# Procedure: as §1, §2, §3
# [2] = system: MDA-MB-231 breast cancer cells; experiment: MTT colorimetric cell viability assay, MDA-MB-231 cells; type: cell-based
# Procedure: as §1
# as §4, with “viability.” for “viability. PC-3 cells or”, “compound” for “compounds”
# as §4
# MCF-7TAMR = experiment: MTT cell growth inhibition, MCF-7TAMR cells; type: cell-based
# Procedure: as §1, §2, §3
# LTLC = experiment: MTT cell growth inhibition, LTLC cells; type: cell-based
# Procedure: as §1
# (§5) PC-3 cells were seeded in 24 well plates (Corning Costar) at a density of 2×10^4 cells per well per 1 mL of medium. Cells were allowed to adhere to the plate for 24 hours and then treated with different concentrations of ATRA, HDIs or mutual prodrugs dissolved in 10% DMSO, 90% ethanol. Cells were treated for five days with renewal of prodrug and media on day 3. […] The absorbance at 560 nm was measured by spectrophotometry (Victor 1420 multilabel counted, Wallac). […] GI50 values were calculated by nonlinear regression analysis using GraphPad Prism software. […]
# LTLT-Ca = experiment: MTT cell growth inhibition, LTLT-Ca cells; type: cell-based
# Procedure: as §1, §5
# [3] = pH 7.2
# Procedure: Plasma was obtained by centrifugation of blood samples (obtained from mice) containing 0.25% heparin. 0.8 ml of plasma was mixed with 0.2 ml of phosphate buffer (pH 7.2). Incubations were performed at 37° C.+/−0.5° C. using shaking water bath. The reaction was initiated by adding 25 μl of stock solution of mutual prodrugs (1 mg/ml) to preheated plasma and aliquots were taken at different time interval and extracted using solid phase extraction with C18 Bond Elut columns. HPLC analysis of the extracted samples were performed using a multi-linear gradient solvent system, (i) 20 mM aq. CH3COONH4 buffer/CH3OH(50:50), (100% to 0%) and (ii) CH3OH(100%), (0% to 100%) at a flow rate of 0.8 ml/min.
# Plasma was obtained by centrifugation of blood samples containing 0.25% heparin. 0.8 ml of plasma was mixed with 0.2 ml of phosphate buffer (pH 7.2). Incubations were performed at 37° C.±0.5° C. using shaking water bath. […]
# HPLC methods were developed to briefly study the cleavage of compounds VNLG/60, VNLG/66, VNLG/114,VNLG/122 and VNLG/124, in fresh mouse plasma. […] Furthermore, the stability of mutual prodrugs was studied in 0.02 M phosphate buffer (pH=7.2) and also in 80% human serum (obtained from Sigma) containing 20% 0.02 M phosphate buffer as previously described.^41 The mutual prodrugs were each incubated at 37° C. for 24 h, extracted and analyzed by HPLC.
# [4] = Homo sapiens, PC-3, dose-response curves, at least three independent experiments, SEM < 10%, read-out: GI50 Values, PC-3 prostate cancer cells
# [5] = Homo sapiens, MDA-MB-231, read-out: GI50, MDA-MB-231 cells
# [6] = Homo sapiens, MDA-MB-231, dose-response curves, at least three independent experiments, SEM < 10%, read-out: GI50 Values, MDA-MB-231 breast cancer cells
# [7] = PC-3, dose-response curves, at least three independent experiments, SEM < 10%, read-out: GI50 Values, PC-3 prostate cancer cells
# [8] = MDA-MB-231, dose-response curves, at least three independent experiments, SEM < 10%, read-out: GI50 Values, MDA-MB-231 breast cancer cells
# [9] = MDA-MB-231, read-out: GI50, MDA-MB-231 cells
compound,measurement,setting,value
"CC(=O)Nc1ccc(C(=O)Nc2ccccc2NC(=O)CNC(=O)OCOC(=O)/C=C(C)/C=C/C=C(C)/C=C/C2=C(C)CCCC2(C)C)cc1 [VNLG/60, (N-{[N-(2-{[4-(Acetylamino)phenyl]carbonylamino}phenyl)carbamoyl]methyl}carbamoyloxy)methyl(2E,4E,6E,8E)-3,7-dimethyl-9-(2,6,6-trimethylcyclohex-1-enyl)nona-2,4,6,8-tetraenoate]",GI50,"MCF-7; Homo sapiens, MCF7",0.25 µM
same,GI50,[1]; [4],4.27 µM
same,GI50,MCF-7HOX-B7,1.2 µM
same,GI50,[2]; [5],0.63 µM
same,GI50,"[2]; Homo sapiens, MDA-MB-231, MTT assay, FIG. 1C, read-out: GI50, MDA-MB-231 (FIG. 1C)",4.3 µM
same,GI50,[2]; [6],0.63 µM
same,growth inhibitory effect versus parent drugs alone or in combination,[2]; MDA-MB-231,synergistic growth inhibitory effect
same,GI50,MCF-7TAMR,0.17 µM
"{N-[N-{2-[4-{[3-Pyridylmethoxy)carbonyamino]methyl}phenyl)carbonylamino]phenyl}carbamoyl carbamoyloxy}methyl(2E,4E,6E,8E)-3,7-dimethyl-9-(2,6,6-trimethylcyclohex-1-enyl)nona-2,4,6,8-tetraenoate [VNLG/66]",GI50,MCF-7; MCF-7,0.15 µM
same,GI50 fold lower than 2 (MS-275),[1]; PC-3,4.75 fold
same,GI50,[1]; [7],0.04 µM
same,GI50,"[1]; PC-3, read-out: GI50, PC-3 cells",0.04 µM
same,GI50,MCF-7HOX-B7; MCF-7HOX-B7,0.006 µM
same,GI50,LTLC,0.02 µM
same,GI50,LTLT-Ca,0.65 µM
same,hydrolysis of mutual prodrug in plasma,[3],no mutual Prodrug after one hour
same,GI50,[2]; [8],0.94 µM
same,GI50,[2]; [9],0.94 µM
same,GI50,MCF-7TAMR; MCF-7TAMR,0.02 µM
"CCCC(=O)OCc1ccc(OC(=O)/C=C(C)/C=C/C=C(C)/C=C/C2=C(C)CCCC2(C)C)cc1 [VNLG/124, 4-(Butanoyloxymethyl)phenyl(2E,4E,6E,8E)-3,7-dimethyl-9-(2,6,6-trimethylcyclohex-1-enyl)nona-2,4,6,8-tetraenoate]",inhibition at 20 µM,"[1]; Homo sapiens, PC-3, 20 μM, FIG. 8",~80%
same,GI50,"[1]; Homo sapiens, PC-3, FIG. 9, combination = increasing ATRA with BA 10.0 μM, read-out: GI50, PC-3 dose-response curves (FIG. 9)",1.7 µM
same,GI50,[1]; [4],1.02 µM
same,growth inhibitory effect versus parent drugs alone or in combination,[1]; PC3,significant increase
same,GI50 fold lower than the combination of ATRA and BA,"[1]; PC-3, FIG. 9",15 fold
same,GI50,[2]; [5],0.01 µM
same,GI50,"[2]; Homo sapiens, MDA-MB-231, head-to-head with 3, FIG. 7, read-out: GI50 for inhibition of growth of MDA-MB-231 cells, head-to-head (FIG. 7)",0.048 µM
same,GI50,[2]; [6],0.01 µM
same,GI50 fold lower than ATRA,[2]; MDA-MB-231,1085 fold
same,GI50 fold lower than BA,[2]; MDA-MB-231,"over 100,000 fold"
same,growth inhibitory effect versus parent drugs alone or in combination,[2]; MDA-MB-231,significant increase
same,GI50 fold lower than that of 3,"[2]; MDA-MB-231, FIG. 7",25 fold
"CC(=O)Nc1ccc(C(=O)Nc2ccccc2N)cc1 [CI-994, N-(2′-aminophenyl)-4-acetylaminobenzamide, reference compound]",GI50,[1]; [4],0.29 µM
same,GI50,[2]; [6],0.17 µM
"CC1=C(/C=C/C(C)=C/C=C/C(C)=C/C(=O)Oc2ccc(COC(=O)Nc3ccccc3NC(=O)c3ccc(NCC(=O)OCc4cccnc4)cc3)cc2)C(C)(C)CCC1 [VNLG/114, 4-{[N-(2-{[4-({[(3-Pyridylmethyl)oxycarbonyl]methyl}amino)phenyl]carbonylamino}phenyl)carbamoyloxy]methyl}phenyl(2E,4E,6E,8E)-3,7-dimethyl-9-(2,6,6-trimethylcyclohex-1-enyl)nona-2,4,6,8-tetraenoate]",GI50,"MCF-7; Homo sapiens, MCF7",0.06 µM
same,melting point,,128 to 130 °C
same,GI50,[1]; [4],0.18 µM
same,GI50,MCF-7HOX-B7,0.72 µM
same,GI50,[2]; [6],0.17 µM
same,growth inhibitory effect versus parent drugs alone or in combination,[2]; MDA-MB-231,synergistic growth inhibitory effect; also recorded: significant increase
same,GI50,MCF-7TAMR,0.21 µM
"CCCC(=O)[O-].[Na+] [Sodium butyrate (BA), Sodium butyrate, reference compound]",GI50,"[1]; Homo sapiens, PC-3, read-out: GI50 Values, PC-3 prostate cancer cells",72.4 µM
same,GI50,[2]; [6],> 1000 µM
"CC1=C(/C=C/C(C)=C/C=C/C(C)=C/C(=O)O)C(C)(C)CCC1 [ATRA, all-trans retinoic acid, reference compound]",GI50,[1]; [4],7.6 µM
same,GI50,[2]; [6],10.8 µM
"CCCC(=O)OCOC(=O)C=C(C)C=CC=C(C)C=CC1=C(C)CCCC1(C)C [compound 3, retinoyloxymethyl butyrate, reference compound]",GI50,"[2]; MDA-MB-231, head-to-head with VNLG/124, FIG. 7, read-out: GI50 for inhibition of growth of MDA-MB-231 cells, head-to-head (FIG. 7)",1.18 µM
"Nc1ccccc1NC(=O)c1ccc(CNC(=O)OCc2cccnc2)cc1 [MS-275, N-(2-aminophenyl)4-[N-(pyridine-3-yl-methoxy-carbonyl)aminomethyl]benzamide, reference compound]",GI50,"[1]; Homo sapiens, PC-3, read-out: GI50, PC-3 cells",0.19 µM
same,GI50,[1]; [4],0.19 µM
same,GI50,[2]; [6],0.009 µM
"CC1=C(/C=C/C(C)=C/C=C/C(C)=C/C(=O)Oc2ccc(CO)cc2)C(C)(C)CCC1 [compound 16, 4-(Hydroxymethyl)phenyl(2E,4E,6E,8E)-3,7-dimethyl-9-(2,6,6-trimethylcyclohex-1-enyl)nona-2,4,6,8-tetraenoate]",GI50,[1]; [4],1.02 µM
same,GI50 fold lower than that of butyric acid (BA),[1]; PC-3,74 fold
"CC(=O)Nc1ccc(C(=O)Nc2ccccc2NC(=O)OCc2ccc(OC(=O)/C=C(C)/C=C/C=C(C)/C=C/C3=C(C)CCCC3(C)C)cc2)cc1 [VNLG/122, 4-{[N-2-{[4-(Acetylamino)phenyl]carbonylamino}phenyl0carbamoyloxy]methyl}phenyl(2E,4E,6E,8E) -3,7-dimethyl-9-(2,6,6-trimethylcyclohex-1-enyl)nona-2,4,6,8-tetraenoate]",GI50,MCF-7; MCF-7,0.52 µM
same,GI50,[1]; [7],0.87 µM
same,GI50,MCF-7HOX-B7; MCF-7HOX-B7,8.13 µM
same,GI50 fold difference to VNLG/60,[2]; MDA-MB-231,31.5 fold
same,GI50 fold lower than ATRA,[2]; MDA-MB-231,543 fold
same,GI50 fold lower than CI-994,[2]; MDA-MB-231,8.5 fold
same,GI50,[2]; [8],0.02 µM
same,GI50,[2]; [9],0.02 µM
same,GI50,MCF-7TAMR; MCF-7TAMR,0.08 µM
